Reference: article PMC6515931, “The Efflux Mechanism of Fraxetin-O-Glucuronides in UGT1A9-Transfected HeLa Cells: Identification of Multidrug Resistance-Associated Proteins 3 and 4 (MRP3/4) as the Important Contributors” (Frontiers in Pharmacology, 2019)
Where “and” joins values, the source holds several entries; their conditions need not be identical. Identical values can stand only once. Like-named read-outs stand apart in the source and are kept apart here. One block for each compound: values may come before it.

How the values were obtained:
UGT1A9 [1] = target: T1, UGT1A9 (Homo sapiens, UniProt O60656); experiment: Effect of Ko143 and MK571 on fraxetin-O-glucuronidation activity of UGT1A9; settings: Ko143 20 μM
T1 sequence (O60656 26-530): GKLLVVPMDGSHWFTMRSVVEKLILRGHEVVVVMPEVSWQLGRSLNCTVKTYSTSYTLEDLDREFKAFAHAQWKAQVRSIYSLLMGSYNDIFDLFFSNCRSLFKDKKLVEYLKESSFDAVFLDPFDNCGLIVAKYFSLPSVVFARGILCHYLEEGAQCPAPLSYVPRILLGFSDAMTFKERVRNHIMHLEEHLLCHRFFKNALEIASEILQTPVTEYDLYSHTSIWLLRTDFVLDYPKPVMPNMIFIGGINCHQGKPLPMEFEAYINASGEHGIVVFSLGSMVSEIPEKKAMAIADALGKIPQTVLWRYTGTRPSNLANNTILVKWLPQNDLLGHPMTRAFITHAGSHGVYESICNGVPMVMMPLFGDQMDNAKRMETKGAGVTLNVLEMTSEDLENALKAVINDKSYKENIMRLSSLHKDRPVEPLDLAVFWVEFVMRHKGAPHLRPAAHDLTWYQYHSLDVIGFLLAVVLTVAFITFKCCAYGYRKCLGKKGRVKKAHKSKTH
Experimental: (§1) The incubation system was slightly modified on the basis of a previously published article ([Qin et al., 2018a]). […] After preincubation at 37°C for 5 min, UDPGA (3.5 mM) was added to the reaction system, and the mixture was incubated for another 30 min. These reactions were terminated by the addition of an equal volume of ice-cold acetonitrile. The mixed samples were centrifuged at 13800 × g for 10 min, and the supernatant was analyzed by ultra-high-performance liquid chromatography (UHPLC). All the experiments were conducted in triplicate.
(§2) Other detailed operations were the same as described above.

HeLa1A9 cell lysate [2] = target: T2, HeLa1A9 cell lysate (Homo sapiens, UniProt O60656); experiment: Effect of Ko143 and MK571 on fraxetin-O-glucuronidation activity of HeLa1A9 cell lysate; format: biochemical; settings: Ko143 20 μM
T2 sequence (O60656 26-530): T1 sequence (O60656 26-530)
Experimental: as §1, §2

MRP2 = system: MRP2; parameters: method as in Sjöstedt et al., 2016; settings: ref Sjöstedt et al., 2016; cited from earlier work
BCRP [3] = target: T3, BCRP (Homo sapiens, UniProt Q9UNQ0); experiment: shRNA-mediated partial silencing of BCRP in HeLa1A9 cells, glucuronide excretion; format: cell-based; settings: fraxetin 10 μM
T3 construct: BCRP, MRP1, MRP3, and MRP4 were detected in both wild-type HeLa and HeLa1A9 cells; endogenous in cells; host or cells: HeLa1A9 cells
T3 sequence (Q9UNQ0 1-655): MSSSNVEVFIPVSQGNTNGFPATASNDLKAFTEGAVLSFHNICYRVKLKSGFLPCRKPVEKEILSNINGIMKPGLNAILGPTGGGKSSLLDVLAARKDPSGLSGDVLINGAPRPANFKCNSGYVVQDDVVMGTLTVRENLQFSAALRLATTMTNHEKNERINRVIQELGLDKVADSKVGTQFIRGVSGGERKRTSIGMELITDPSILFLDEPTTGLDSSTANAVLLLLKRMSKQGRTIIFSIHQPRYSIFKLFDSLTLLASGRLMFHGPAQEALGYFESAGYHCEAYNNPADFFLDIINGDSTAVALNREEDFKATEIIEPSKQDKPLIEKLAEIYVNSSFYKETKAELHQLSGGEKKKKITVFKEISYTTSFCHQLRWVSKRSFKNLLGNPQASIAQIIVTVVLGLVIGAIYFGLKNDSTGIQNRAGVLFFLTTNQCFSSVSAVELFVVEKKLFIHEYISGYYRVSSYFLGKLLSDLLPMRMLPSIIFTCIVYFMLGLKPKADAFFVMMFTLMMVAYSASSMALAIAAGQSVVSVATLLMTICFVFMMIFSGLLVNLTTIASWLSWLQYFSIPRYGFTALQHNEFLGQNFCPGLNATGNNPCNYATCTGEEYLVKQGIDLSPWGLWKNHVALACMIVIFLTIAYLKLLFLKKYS
Experimental: (§3) The HeLa1A9 cells were pretreated and incubated with fraxetin solutions as reported previously ([Jiang et al., 2011]). Before assays, the HeLa1A9 cells were washed twice with prewarmed (37°C) Hank’s balanced salt solution (HBSS; pH = 7.4). After that, fraxetin (10 μM) dissolved in 2 mL of HBSS was incubated with the HeLa1A9 cells. At each time point (30, 60, 90, and 120 min), 200 μL of the culture supernatant from each well was collected as samples, and an equal volume of a loading media was used to replenish each well. Next, the collected samples were each mixed with 100 μL ice-cold acetonitrile. The supernatants were subjected to UHPLC analysis after centrifugation (10 min at 13800 × g).
(§4) In glucuronide excretion assays, biological inhibition mainly including shRNA-mediated partial silencing of BCRP and MRPs in HeLa cells was usually performed to evaluate the role of each efflux transporter ([Quan et al., 2015]; [Sun et al., 2015]; [Qin et al., 2018a]). Established shRNA_BCRP, shRNA_MRP1, shRNA_MRP3, and shRNA_MRP4 plasmids were transiently transfected into HeLa1A9 cells to develop the stably shRNA-transfected cell lines, named HeLa1A9-BCRP-shRNA cells, HeLa1A9-MRP1-shRNA, HeLa1A9-MRP3-shRNA, and HeLa1A9-MRP4-shRNA cells, respectively. […]
(§5) In addition, the excretion rate of intracellular glucuronides was calculated using Equ. […]

HeLa1A9 cells = experiment: Toxicity toward HeLa1A9 cells during excretion experiments; format: cell-based, human; settings: within the experimental concentration range
cystathionine β-synthase = system: cystathionine β-synthase; parameters: method as in Thorson et al., 2013; settings: cystathionine β-synthase inhibitor; ref Thorson et al., 2013; cited from earlier work
[4] = system: UDP-glucuronosyltransferase 1A9 (UGT1A9); parameters: method as in Xia et al., 2014; settings: ref Xia et al., 2014, cited from earlier work
α-glucosidase = target: α-glucosidase; parameters: method as in Milella et al., 2016; settings: versus acarbose, a well-known α-glucosidase inhibitor; ref Milella et al., 2016; cited from earlier work
[5] = parameters: method as in Wang H. et al., 2016; settings: rats; after oral administration of fraxin 50 mg/kg; ref Wang H. et al., 2016; cited from earlier work
BCRP [6] = system: BCRP; parameters: method as in Sjöstedt et al., 2016; settings: ref Sjöstedt et al., 2016; cited from earlier work
MRP1 = target: T4, MRP1 (Homo sapiens, UniProt P33527); experiment: shRNA-mediated partial silencing of MRP1 in HeLa1A9 cells, glucuronide excretion; format: cell-based; settings: fraxetin 10 μM
T4 construct: BCRP, MRP1, MRP3, and MRP4 were detected in both wild-type HeLa and HeLa1A9 cells; endogenous in cells
T4 sequence (P33527 whole entry): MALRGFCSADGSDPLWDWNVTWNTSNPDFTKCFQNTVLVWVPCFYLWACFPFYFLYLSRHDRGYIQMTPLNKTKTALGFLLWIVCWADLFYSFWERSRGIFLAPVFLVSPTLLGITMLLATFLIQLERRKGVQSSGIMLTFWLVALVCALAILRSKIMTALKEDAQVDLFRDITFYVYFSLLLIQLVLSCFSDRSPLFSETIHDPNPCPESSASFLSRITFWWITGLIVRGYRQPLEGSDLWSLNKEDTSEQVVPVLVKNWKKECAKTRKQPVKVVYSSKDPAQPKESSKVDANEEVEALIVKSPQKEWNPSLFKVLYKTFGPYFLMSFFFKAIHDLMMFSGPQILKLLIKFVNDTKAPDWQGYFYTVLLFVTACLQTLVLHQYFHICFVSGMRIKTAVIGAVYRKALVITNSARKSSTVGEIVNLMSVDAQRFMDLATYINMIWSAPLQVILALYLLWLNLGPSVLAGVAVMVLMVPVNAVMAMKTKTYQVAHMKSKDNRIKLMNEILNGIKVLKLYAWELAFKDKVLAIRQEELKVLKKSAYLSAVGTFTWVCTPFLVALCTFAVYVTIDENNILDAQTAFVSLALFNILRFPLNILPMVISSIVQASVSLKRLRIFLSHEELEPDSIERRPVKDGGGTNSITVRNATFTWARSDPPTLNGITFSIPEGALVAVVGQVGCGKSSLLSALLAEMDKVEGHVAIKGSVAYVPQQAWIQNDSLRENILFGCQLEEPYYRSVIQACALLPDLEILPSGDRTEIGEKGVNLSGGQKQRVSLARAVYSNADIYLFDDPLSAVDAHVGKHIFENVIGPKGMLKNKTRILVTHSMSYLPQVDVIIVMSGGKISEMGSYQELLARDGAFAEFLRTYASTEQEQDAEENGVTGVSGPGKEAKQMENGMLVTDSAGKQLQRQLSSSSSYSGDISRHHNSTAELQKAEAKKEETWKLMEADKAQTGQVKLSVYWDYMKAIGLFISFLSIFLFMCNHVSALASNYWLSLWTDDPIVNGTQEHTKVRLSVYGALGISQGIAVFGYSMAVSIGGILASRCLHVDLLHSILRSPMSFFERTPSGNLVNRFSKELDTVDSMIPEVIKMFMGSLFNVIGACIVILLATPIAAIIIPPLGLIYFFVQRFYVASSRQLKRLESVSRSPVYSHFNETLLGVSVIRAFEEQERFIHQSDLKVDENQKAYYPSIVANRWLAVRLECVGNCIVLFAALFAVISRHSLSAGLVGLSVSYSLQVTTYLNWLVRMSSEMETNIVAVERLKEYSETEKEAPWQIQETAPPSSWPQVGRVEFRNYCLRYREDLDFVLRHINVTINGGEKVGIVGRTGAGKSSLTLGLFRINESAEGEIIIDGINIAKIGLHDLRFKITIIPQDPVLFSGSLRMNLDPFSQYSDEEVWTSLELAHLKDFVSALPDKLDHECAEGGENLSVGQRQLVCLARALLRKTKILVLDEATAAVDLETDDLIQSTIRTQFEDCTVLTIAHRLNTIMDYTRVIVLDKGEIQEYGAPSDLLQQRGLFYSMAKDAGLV
Experimental: as §3, §4, §5

HeLa1A9 cell lysate [7] = target: T2, HeLa1A9 cell lysate; experiment: Glucuronidation kinetics by HeLa1A9 cell lysate; format: in vitro ADME; settings: metabolite propofol-G
Experimental: as §1
The enzyme kinetic parameters were obtained by fitting appropriate kinetic models to the experimental data in GraphPad Prism V5 software (San Diego, CA, United States). The best model was selected based on visual inspection of the Eadie–Hofstee plots ([Qin et al., 2018b]). In brief, if the Eadie–Hofstee plot was linear, formation rates (V) of glucuronides at different substrate concentrations (C) were fitted to the standard equations (1): […]
Where Km is the Michaelis–Menten constant, and Vmax is the maximum rate of glucuronidation. The intrinsic clearance (CLint) was computed as Vmax/Km.

UGT1A9 [8] = target: T1, UGT1A9; experiment: Inhibition of fraxetin-O-glucuronide formation by selective UGT1A9 inhibitors; format: biochemical; parameters: purchased Corning Biosciences; settings: fraxetin 4 and 20 μM; magnolol 1 μM, niflumic acid 10 μM, androsterone 10 μM
Experimental: as §1, §2

SMILES: COc1ccc2c3c([nH]c2c1)[C@H](CC(C)C)N1C(=O)[C@H](CCC(=O)OC(C)(C)C)NC(=O)[C@@H]1C3 [Ko143]
inhibition of fraxetin-O-glucuronidation, G1 (UGT1A9 [1]): 41.5%
inhibition of fraxetin-O-glucuronidation, G2 (UGT1A9 [1]): 24.9%
inhibition of fraxetin-O-glucuronidation, G1 (HeLa1A9 cell lysate [2]): 20.4%
inhibition of fraxetin-O-glucuronidation, G2 (HeLa1A9 cell lysate [2]): 29.3%

SMILES: COc1cc2ccc(=O)oc2c(O)c1O [fraxetin]
inhibitory action on transporter (MRP2): absence of an inhibitory action
changes in excretion rates, intracellular glucuronides and fmet values (BCRP [3]): did not cause any changes
toxicity toward HeLa1A9 cells (HeLa1A9 cells): no significant toxicity
IC50 (cystathionine β-synthase): 134 µM
CLint ([4]; formation of fraxetin-7-O-glucuronide by UGT1A9): 42 μL/min per milligram of protein
CLint ([4]; formation of fraxetin-8-O-glucuronide by UGT1A9): 300 μL/min per milligram of protein
half-maximal inhibitory concentration (IC50) compared with acarbose (α-glucosidase): significantly lower
half-life [5]: 11 h
maximal plasma concentration [5]: 2250 ng/mL and ~11 μM
inhibitory action on transporter (BCRP [6]): absence of an inhibitory action
changes in excretion rates, intracellular glucuronides and fmet values (MRP1): did not cause any changes

SMILES: CC(C)c1cccc(C(C)C)c1O [propofol]
Vmax (HeLa1A9 cell lysate [7]): 3.2 ± 0.2 (^aaa) pmol/min/mg

effect on formation of G1 and G2 (UGT1A9 [8]): significantly inhibited
SMILES: O=C(O)c1cccnc1Nc1cccc(C(F)(F)F)c1 [niflumic acid]
